Results taken from ChEMBL document CHEMBL1149339, “Vasorelaxant activity of cyclic peptide, cyclosquamosin B, from Annona squamosa” (Bioorg Med Chem Lett, 2006).
Activity calls are given as the source filed them.

Tests used:
Format in all cases: functional, organism-based
Rattus norvegicus [1] = species: Rattus norvegicus; assay: Vasorelaxant activity against norepinephrine-induced contraction of rat thoracic aortic ring with endothelium; conditions: Aorta
Rattus norvegicus [2] = species: Rattus norvegicus; assay: Inhibition of potassium ion depolarized calcium-induced contraction of rat aorta mediated by voltage dependent calcium channel at 10 uM
Rattus norvegicus [3] = species: Rattus norvegicus; assay: Inhibition of norepinephrine-induced contraction in rat aorta mediated by receptor operated calcium channel in presence of nicardipine at 10 uM
Rattus norvegicus [4] = species: Rattus norvegicus; assay: Vasorelaxant activity against norepinephrine-induced contraction of rat thoracic aortic ring without endothelium; conditions: Aorta

Measured: Activity

CC[C@@H](C)[C@@H]1NC(=O)[C@@H]2CCCN2C(=O)[C@@H]2CCCN2C(=O)[C@H](CCC(N)=O)NC(=O)[C@H](CCSC)NC(=O)[C@H](CC(C)C)NC(=O)CN(C)C(=O)[C@H]([C@H](C)O)NC1=O
active: all assays above
